This is an account of results in ChEMBL document CHEMBL1147965, “Dual irreversible kinase inhibitors: quinazoline-based inhibitors incorporating two independent reactive centers with each targeting different cysteine residues in the kinase domains of EGFR and VEGFR-2” (Bioorg Med Chem, 2007).

Experiment [1] has as its target T1, Vascular endothelial growth factor receptor 2 (Homo sapiens, UniProt P35968). Description: Inhibition of human VEGFR2 in presence of 1 uM ATP.
The target in experiment [2] is T1, Vascular endothelial growth factor receptor 2. As to the kind of experiment: Inhibition of human VEGFR2 in presence of 1 mM ATP.
Experiment [3] addresses T2, Epidermal growth factor receptor (Homo sapiens, UniProt P00533). As to the kind of experiment: Inhibition of human EGFR in presence of 1 uM ATP.
Experiment [4] deals with T2, Epidermal growth factor receptor. As to the kind of experiment: Inhibition of human EGFR in presence of 1 mM ATP.

T2 sequence (P00533 whole entry): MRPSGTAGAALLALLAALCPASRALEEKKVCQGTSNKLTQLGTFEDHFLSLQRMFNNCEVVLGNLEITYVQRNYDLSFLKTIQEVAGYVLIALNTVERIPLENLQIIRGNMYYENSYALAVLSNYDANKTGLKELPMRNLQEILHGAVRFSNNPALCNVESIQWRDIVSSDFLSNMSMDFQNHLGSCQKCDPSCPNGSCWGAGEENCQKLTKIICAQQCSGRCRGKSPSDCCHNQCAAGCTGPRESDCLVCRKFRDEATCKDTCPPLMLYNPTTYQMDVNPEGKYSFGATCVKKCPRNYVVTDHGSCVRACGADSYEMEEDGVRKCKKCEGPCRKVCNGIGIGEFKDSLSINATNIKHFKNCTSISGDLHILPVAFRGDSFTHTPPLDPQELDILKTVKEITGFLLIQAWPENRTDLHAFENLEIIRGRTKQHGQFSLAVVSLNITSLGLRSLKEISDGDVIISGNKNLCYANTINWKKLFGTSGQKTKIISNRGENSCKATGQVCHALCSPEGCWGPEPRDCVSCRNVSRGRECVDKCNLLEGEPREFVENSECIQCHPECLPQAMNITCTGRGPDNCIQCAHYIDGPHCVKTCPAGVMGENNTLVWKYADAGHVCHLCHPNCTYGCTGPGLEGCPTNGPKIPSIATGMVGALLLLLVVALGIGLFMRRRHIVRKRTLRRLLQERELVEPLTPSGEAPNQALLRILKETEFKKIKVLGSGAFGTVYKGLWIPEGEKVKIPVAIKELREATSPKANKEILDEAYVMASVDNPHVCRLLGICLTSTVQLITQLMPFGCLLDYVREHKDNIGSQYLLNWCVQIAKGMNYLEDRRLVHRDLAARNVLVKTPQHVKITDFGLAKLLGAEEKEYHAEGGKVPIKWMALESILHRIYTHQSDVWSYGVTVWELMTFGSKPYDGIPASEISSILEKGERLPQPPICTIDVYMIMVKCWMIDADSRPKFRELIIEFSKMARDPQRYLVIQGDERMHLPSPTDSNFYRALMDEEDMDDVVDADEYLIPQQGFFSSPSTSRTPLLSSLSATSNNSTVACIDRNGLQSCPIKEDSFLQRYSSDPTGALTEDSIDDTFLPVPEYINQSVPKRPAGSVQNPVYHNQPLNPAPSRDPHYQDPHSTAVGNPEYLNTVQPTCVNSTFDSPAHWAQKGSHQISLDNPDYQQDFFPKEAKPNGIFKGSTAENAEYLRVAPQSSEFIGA
T1 sequence (P35968 whole entry): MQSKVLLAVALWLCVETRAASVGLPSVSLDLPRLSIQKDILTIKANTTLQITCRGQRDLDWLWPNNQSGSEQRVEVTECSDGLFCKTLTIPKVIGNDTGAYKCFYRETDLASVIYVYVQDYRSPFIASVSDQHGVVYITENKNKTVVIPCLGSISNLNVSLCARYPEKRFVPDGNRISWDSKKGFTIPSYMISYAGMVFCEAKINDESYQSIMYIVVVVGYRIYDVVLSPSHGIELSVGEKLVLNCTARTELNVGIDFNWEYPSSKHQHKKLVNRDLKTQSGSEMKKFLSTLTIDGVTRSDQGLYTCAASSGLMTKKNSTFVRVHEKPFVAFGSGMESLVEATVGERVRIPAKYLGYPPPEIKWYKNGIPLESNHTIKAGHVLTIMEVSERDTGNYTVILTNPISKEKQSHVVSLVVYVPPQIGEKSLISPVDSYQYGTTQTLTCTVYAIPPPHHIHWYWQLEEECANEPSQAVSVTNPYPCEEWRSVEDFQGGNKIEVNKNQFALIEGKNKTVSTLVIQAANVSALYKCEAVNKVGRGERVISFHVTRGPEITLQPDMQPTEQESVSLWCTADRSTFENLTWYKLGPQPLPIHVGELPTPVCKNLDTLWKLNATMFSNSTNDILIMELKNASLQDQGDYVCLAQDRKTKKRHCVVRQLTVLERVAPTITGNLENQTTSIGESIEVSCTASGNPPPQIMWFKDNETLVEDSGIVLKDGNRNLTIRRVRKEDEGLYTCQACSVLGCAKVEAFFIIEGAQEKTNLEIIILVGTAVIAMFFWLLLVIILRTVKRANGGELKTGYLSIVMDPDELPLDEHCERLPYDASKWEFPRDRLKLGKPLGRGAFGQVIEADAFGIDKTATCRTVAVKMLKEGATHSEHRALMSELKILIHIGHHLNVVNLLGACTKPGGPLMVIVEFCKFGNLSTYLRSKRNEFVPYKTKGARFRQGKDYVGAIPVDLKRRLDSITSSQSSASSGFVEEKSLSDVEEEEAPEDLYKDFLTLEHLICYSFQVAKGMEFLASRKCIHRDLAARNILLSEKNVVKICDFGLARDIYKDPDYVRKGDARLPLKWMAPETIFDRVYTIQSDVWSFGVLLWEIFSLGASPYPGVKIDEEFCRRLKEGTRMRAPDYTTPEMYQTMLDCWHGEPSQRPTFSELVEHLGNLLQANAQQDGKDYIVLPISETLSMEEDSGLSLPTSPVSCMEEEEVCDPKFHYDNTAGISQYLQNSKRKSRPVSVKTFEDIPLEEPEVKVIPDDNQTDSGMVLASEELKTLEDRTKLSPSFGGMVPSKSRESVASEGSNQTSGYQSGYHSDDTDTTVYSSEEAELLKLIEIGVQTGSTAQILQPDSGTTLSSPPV

As usually defined, the IC50 is the midpoint of a concentration-inhibition curve. As for `CCOc1cc2ncnc(NC3=CC(=O)C(OC(CF)CF)=CC3=O)c2cc1NC(=O)/C=C/CN(C)C`, the IC50 in experiment [1] is 109 nM; in experiment [2], 303 nM; in experiment [3], 283 nM; in experiment [4] it was 2090 nM.

`CN(C)C/C=C/C(=O)Nc1ccc2ncnc(Nc3ccc(Br)cc3F)c2c1`: the IC50 in experiment [3] is under 10 nM; in experiment [4], 704 nM.

For the compound `CCOc1cc2ncnc(NC3=CC(=O)C(OC)=CC3=O)c2cc1NC(=O)/C=C/CN(C)C`, the IC50 in experiment [1] was 379 nM; in experiment [2], 1400 nM; in experiment [3], 799 nM; in experiment [4], over 10000 nM.

Regarding `CCOc1cc2ncnc(NC3=CC(=O)C(OCc4cccc(C)c4)=CC3=O)c2cc1NC(=O)/C=C/CN(C)C`, the IC50 in experiment [1] was determined as 189 nM; in experiment [2], 613 nM; in experiment [3], 24.9 nM; in experiment [4], 173 nM.

In the case of `CCOc1cc2ncnc(NC3=CC(=O)C(OCc4ccccn4)=CC3=O)c2cc1NC(=O)/C=C/CN(C)C`, the half-inhibitory concentration (IC50) in experiment [1] was 135 nM; in experiment [2] it was 1010 nM; in experiment [3] it was 90.8 nM; in experiment [4], 792 nM.

For `COCCOc1cc2ncnc(NC3=CC(=O)C(OCc4cccc(F)c4)=CC3=O)c2cc1OC`, the concentration for half-maximal inhibition (IC50) in experiment [1] is 46.1 nM; in experiment [2], 188 nM; in experiment [3] it was over 10000 nM; in experiment [4], over 10000 nM.

Take `COCCOc1cc2ncnc(NC3=CC(=O)C(OCc4ccccc4)=CC3=O)c2cc1OC`: the IC50 in experiment [1] is 53.7 nM; in experiment [2] it was 140 nM; in experiment [3] it was over 10000 nM; in experiment [4], over 10000 nM.

Regarding `CCOc1cc2ncnc(NC3=CC(=O)C(OCc4cccs4)=CC3=O)c2cc1NC(=O)/C=C/CN(C)C`, the IC50 came out at 76.2 nM in experiment [1], 298 nM in experiment [2], 47.5 nM in experiment [3] and 295 nM in experiment [4].

On to `COCCOc1cc2ncnc(NC3=CC(=O)C(OCc4cccc(OC)c4)=CC3=O)c2cc1OC`, for which the IC50 in experiment [1] is 50.2 nM; in experiment [2], 250 nM; in experiment [3] it was 7710 nM; in experiment [4], over 10000 nM.

Regarding `CCOc1cc2ncnc(NC3=CC(=O)C(OCc4ccccc4)=CC3=O)c2cc1NC(=O)/C=C/CN(C)C`, the IC50 in experiment [1] is 102 nM; in experiment [2] it was 783 nM; in experiment [3], 18.7 nM; in experiment [4], 216 nM.

Turning to `CCOc1cc2ncc(C#N)c(Nc3ccc(F)c(Cl)c3)c2cc1NC(=O)/C=C/CN(C)C` [PELITINIB], the half-inhibitory concentration (IC50) in experiment [1] was 3130 nM; in experiment [2], over 10000 nM.

Take `CCOc1cc2ncnc(NC3=CC(=O)C(OCc4ccc(F)c(F)c4)=CC3=O)c2cc1NC(=O)/C=C/CN(C)C`: the IC50 is 112 nM in experiment [1], 550 nM in experiment [2], 167 nM in experiment [3] and 894 nM in experiment [4].

Regarding `CCOc1cc2ncnc(NC3=CC(=O)C(OCc4cccc(F)c4)=CC3=O)c2cc1NC(=O)/C=C/CN(C)C`, the 50% inhibitory concentration (IC50) in experiment [1] amounted to 113 nM; in experiment [2] it was 348 nM; in experiment [3], 4.1 nM; in experiment [4] it was 43.1 nM.

As for `CCOc1cc2ncnc(NC3=CC(=O)C(OCc4cccc(OC)c4)=CC3=O)c2cc1NC(=O)/C=C/CN(C)C`, the IC50 in experiment [1] worked out at 372 nM; in experiment [2], 1280 nM; in experiment [3], 107 nM; in experiment [4], 347 nM.

On to `CCOc1cc2ncnc(NC3=CC(=O)C(OCc4cccc(Cl)c4)=CC3=O)c2cc1NC(=O)/C=C/CN(C)C`, for which the IC50 in experiment [1] came out at 80.2 nM; in experiment [2], 179 nM; in experiment [3] it was 12.2 nM; in experiment [4] it was 35.6 nM.

As for `COc1cc2ncnc(Nc3cccc(Br)c3)c2cc1OC`, the concentration for half-maximal inhibition (IC50) is 1490 nM in experiment [1] and over 10000 nM in experiment [2].

As to `CCOc1cc2ncc(C#N)c(Nc3ccc(OCc4ccccn4)c(Cl)c3)c2cc1NC(=O)/C=C/CN(C)C` [NERATINIB], the IC50 in experiment [1] is 858 nM; in experiment [2], over 10000 nM.
